Measured values published in patent US20210387978A1, “CYCLOBUTYL DIHYDROQUINOLINE SULFONAMIDE COMPOUNDS” (AMGEN INC., priority 2020, published 2021).

These molecules were tested on CYP3A4 (assay: Human CYP 3A4 Induction Assay (mRNA, cryopreserved human hepatocytes)). Settings: 10 uM test compound, 72 hours, percent of control (POC), rifampin positive control.
Assay type: in vitro ADME
From the text: Human CYP 3A4 Induction Assay

In order of rising “Hu CYP3A4 mRNA Induction (10 uM POC)” value:
1. COc1cc([C@H]2C[C@H](C(F)(F)F)C2)c(F)cc1-n1c(=O)ccc2c(F)c(S(=O)(=O)Nc3ccon3)ccc21 (atropisomer, axis not shown; (P)) [Example 46, trans-(P)-5-fluoro-1-(5-fluoro-2-methoxy-4-(3-(trifluoromethyl)cyclobutyl)phenyl)-N-(isoxazol-3-yl)-2-oxo-1,2-dihydroquinoline-6-sulfonamide]  6.6%
2. COc1cc([C@H]2C[C@H](C(F)(F)F)C2)c(F)cc1-n1c(=O)ccc2cc(S(=O)(=O)Nc3ncccn3)ccc21 (atropisomer, axis not shown; (P)) [Example 15, trans-(P)-1-(5-fluoro-2-methoxy-4-(3-(trifluoromethyl)cyclobutyl)phenyl)-2-oxo-N-(pyrimidin-2-yl)-1,2-dihydroquinoline-6-sulfonamide]  36%
3. COc1cc([C@H]2C[C@H](C(F)(F)F)C2)c(C)cc1-n1c(=O)ccc2cc(S(=O)(=O)Nc3ncccn3)ccc21 (atropisomer, axis not shown; (P)) [Example 37, trans-(P)-1-(2-methoxy-5-methyl-4-(3-(trifluoromethyl)cyclobutyl)phenyl)-2-oxo-N-(pyrimidin-2-yl)-1,2-dihydroquinoline-6-sulfonamide]  49.51%
4. COc1cc(C2CCC2)c(Cl)cc1-n1c(=O)ccc2cc(S(=O)(=O)Nc3ncco3)ccc21 (atropisomer, axis not shown; (P)) [Example 32, (P)-1-(5-chloro-4-cyclobutyl-2-methoxyphenyl)-N-(oxazol-2-yl)-2-oxo-1,2-dihydroquinoline-6-sulfonamide]  88%

What follows are molecules tested against T1, Human Nav1.7 (Homo sapiens, UniProt Q15858) (assay: IonWorks Barracuda (IWB) automated patch clamp assay). Settings: human Nav1.7 currents, HEK cells, population patch-clamp, state- and use-dependent voltage protocol; read-out: hNaV1.7 IWB-U IC50.
T1 construct: expressed in transfected cells; host or cells: Spiking HEK cells (without Kir2.1 transfection)
Assay type: cell-based
Method: Ionaworks Barracuda […] Automated Patch Clamp Assay (Same Protocol for Both Human and Mouse)
Human Nav1.7 currents were recorded in population patch-clamp mode with the IWB automated electrophysiology system (Molecular Devices, LLC, Sunnyvale, Calif.). Spiking HEK cells (without Kir2.1 transfection) were cultured and prepared for recordings as previously described for IonWorks Quattro testing^1. The external solution consisted of the following (in mM): NaCl 140, KCl 5, CaCl2 2, MgCl2 1, HEPES 10, and glucose 11, pH 7.4, with N-methyl-D-glucamine at 320 mOsmol. […] From a holding potential of −110 mV, currents were elicited by a train of 26 depolarizations of 150 ms duration to −20 mV at a frequency of 5 Hz. Cells were then clamped to −20 mV for a period of 4 minutes in the presence of a single concentration of test compound. Following this compound incubation period, cells were clamped to −110 mV for three seconds to recover unbound channels and put through the same 26 pulse voltage protocol as above. Peak inward current during the 26th pulse to −20 mV in the presence of compound was divided by the peak inward current evoked by the 26th pulse to −20 mV in the absence of compound to determine percent inhibition. Concentration-response curves of percent inhibition as a function of concentration were generated to calculate IC50 values as described in Kornecook, T. J.; Yin, R.; Altmann, S.; et al. Pharmacologic Characterization of AMG8379, a Potent and Selective Small Molecule Sulfonamide Antagonist of the Voltage-Gated Sodium Channel NaV1. 7.
The potency of the compounds of the present invention were evaluated on human Nav1.7 channels using the above described IonWorks Barracuda automated electrophysiology platform that evaluates the ability of compounds to block sodium conductance through Nav1.7 channels. A voltage-protocol that prosecutes both state-dependent as well as use-dependent inhibition was used as these modes of action are thought to be more relevant for the native state of Nav1.7 channels in pain sensing neurons in vivo.

T1 sequence (Q15858 whole entry): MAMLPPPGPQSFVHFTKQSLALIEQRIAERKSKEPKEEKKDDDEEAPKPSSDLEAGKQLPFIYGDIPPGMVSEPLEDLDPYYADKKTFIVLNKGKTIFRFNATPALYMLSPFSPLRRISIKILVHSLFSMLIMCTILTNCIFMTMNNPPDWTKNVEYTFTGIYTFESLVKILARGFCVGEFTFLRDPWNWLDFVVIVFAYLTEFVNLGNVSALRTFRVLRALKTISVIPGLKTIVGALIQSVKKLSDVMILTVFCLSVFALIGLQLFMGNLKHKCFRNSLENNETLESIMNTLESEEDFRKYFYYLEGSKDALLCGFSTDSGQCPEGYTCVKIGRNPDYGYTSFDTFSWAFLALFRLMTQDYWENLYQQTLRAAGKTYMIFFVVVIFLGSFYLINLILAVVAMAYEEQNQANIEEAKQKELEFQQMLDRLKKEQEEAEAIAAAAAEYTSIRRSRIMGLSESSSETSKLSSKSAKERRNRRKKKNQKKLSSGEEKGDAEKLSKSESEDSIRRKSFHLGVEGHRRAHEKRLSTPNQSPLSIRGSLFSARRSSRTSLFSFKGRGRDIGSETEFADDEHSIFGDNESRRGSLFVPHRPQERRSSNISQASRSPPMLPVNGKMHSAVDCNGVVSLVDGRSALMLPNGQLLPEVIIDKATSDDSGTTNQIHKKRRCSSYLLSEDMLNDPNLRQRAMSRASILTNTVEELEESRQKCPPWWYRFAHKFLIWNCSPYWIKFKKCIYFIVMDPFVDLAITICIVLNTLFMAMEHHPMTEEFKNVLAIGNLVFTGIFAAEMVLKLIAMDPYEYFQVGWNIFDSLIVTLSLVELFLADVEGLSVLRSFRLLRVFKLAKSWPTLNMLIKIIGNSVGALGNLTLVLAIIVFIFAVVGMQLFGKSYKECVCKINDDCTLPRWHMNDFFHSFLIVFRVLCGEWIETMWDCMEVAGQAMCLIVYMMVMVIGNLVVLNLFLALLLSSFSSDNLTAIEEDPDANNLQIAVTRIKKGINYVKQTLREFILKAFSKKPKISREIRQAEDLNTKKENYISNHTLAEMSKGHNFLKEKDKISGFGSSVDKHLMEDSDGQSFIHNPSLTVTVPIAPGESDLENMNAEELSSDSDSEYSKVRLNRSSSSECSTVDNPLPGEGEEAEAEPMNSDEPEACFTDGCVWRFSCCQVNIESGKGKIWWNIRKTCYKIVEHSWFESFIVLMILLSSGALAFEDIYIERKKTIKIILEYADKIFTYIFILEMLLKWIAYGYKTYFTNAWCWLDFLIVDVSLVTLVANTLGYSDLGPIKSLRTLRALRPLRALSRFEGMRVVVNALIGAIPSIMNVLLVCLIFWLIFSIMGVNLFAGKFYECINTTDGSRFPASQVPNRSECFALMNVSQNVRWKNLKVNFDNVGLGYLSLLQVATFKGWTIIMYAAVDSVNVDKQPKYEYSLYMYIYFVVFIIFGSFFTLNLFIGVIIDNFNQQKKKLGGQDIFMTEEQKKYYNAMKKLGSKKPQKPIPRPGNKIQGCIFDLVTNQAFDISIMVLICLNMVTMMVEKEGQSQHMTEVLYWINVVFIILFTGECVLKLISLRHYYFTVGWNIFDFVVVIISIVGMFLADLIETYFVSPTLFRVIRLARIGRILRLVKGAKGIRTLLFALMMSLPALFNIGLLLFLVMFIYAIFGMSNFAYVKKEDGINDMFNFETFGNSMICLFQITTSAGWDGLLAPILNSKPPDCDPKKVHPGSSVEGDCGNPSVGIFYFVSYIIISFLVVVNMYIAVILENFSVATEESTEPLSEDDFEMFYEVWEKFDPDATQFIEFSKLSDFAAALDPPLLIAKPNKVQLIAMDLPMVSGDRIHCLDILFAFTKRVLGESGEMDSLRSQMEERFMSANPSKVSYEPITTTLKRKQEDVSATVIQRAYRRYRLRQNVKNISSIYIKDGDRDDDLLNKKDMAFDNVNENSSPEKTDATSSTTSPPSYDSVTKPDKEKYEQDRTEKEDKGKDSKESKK

In order of rising IC50:
1. COc1cc([C@H]2C[C@H](C(F)(F)F)C2)c(F)cc1-n1c(=O)ccc2cc(S(=O)(=O)Nc3ccon3)c(F)cc21 (atropisomer, axis not shown; (P)) [Example 40, (P)-7-fluoro-1-(5-fluoro-2-methoxy-4-((1R,3R)-3-(trifluoromethyl)cyclobutyl)phenyl)-N-(isoxazol-3-yl)-2-oxo-1,2-dihydroquinoline-6-sulfonamide]  5 nM
2. COc1cc(C23CC(C(F)(F)F)(C2)C3)c(F)cc1-n1c(=O)ccc2cc(S(=O)(=O)Nc3ccon3)ccc21 (atropisomer, axis not shown; (P)) [Example 42, (P)-1-(5-fluoro-2-methoxy-4-(3-(trifluoromethyl)bicyclo[1.1.1]pentan-1-yl)phenyl)-N-(isoxazol-3-yl)-2-oxo-1,2-dihydroquinoline-6-sulfonamide]  6 nM
3. COc1cc([C@H]2C[C@H](C(F)(F)F)C2)c(F)cc1-n1c(=O)ccc2cc(S(=O)(=O)Nc3ncco3)ccc21 (atropisomer, axis not shown; (P)) [Example 43, Trans-(P)-1-(5-Fluoro-2-Methoxy-4-(3-(Trifluoromethyl)Cyclobutyl)Phenyl)-N-(Oxazol-2-Yl)-2-Oxo-1,2-Dihydroquinoline-6-Sulfonamide]  7 nM
4. COc1cc([C@H]2C[C@H](C(F)(F)F)C2)c(F)cc1-n1c(=O)ccc2c(F)c(S(=O)(=O)Nc3ccon3)ccc21 (atropisomer, axis not shown; (P)) [Example 46, trans-(P)-5-fluoro-1-(5-fluoro-2-methoxy-4-(3-(trifluoromethyl)cyclobutyl)phenyl)-N-(isoxazol-3-yl)-2-oxo-1,2-dihydroquinoline-6-sulfonamide]  8 nM
5. COc1cc(C23CC(C(F)(F)F)(C2)C3)c(F)cc1-n1c(=O)ccc2cc(S(=O)(=O)Nc3ncccn3)ccc21 (atropisomer, axis not shown; (P)) [Example 47, (P)-1-(5-fluoro-2-methoxy-4-(3-(trifluoromethyl)bicyclo[1.1.1]pentan-1-yl)phenyl)-2-oxo-N-(pyrimidin-2-yl)-1,2-dihydroquinoline-6-sulfonamide]  8 nM
6. COc1cc([C@H]2C[C@H](OC(F)(F)F)C2)c(F)cc1-n1c(=O)ccc2cc(S(=O)(=O)Nc3ccon3)ccc21 (single isomer, unassigned) [Example 45, trans-(P)-1-(5-fluoro-2-methoxy-4-(3-(trifluoromethoxy)cyclobutyl)phenyl)-N-(isoxazol-3-yl)-2-oxo-1,2-dihydroquinoline-6-sulfonamide]  8 nM
7. COc1cc(C2CCC2)c(Cl)cc1-n1c(=O)ccc2cc(S(=O)(=O)Nc3ncco3)ccc21 (atropisomer, axis not shown; (P)) [Example 32, (P)-1-(5-chloro-4-cyclobutyl-2-methoxyphenyl)-N-(oxazol-2-yl)-2-oxo-1,2-dihydroquinoline-6-sulfonamide]  10 nM
8. COc1cc(C2CC(F)(F)C2)c(Cl)cc1-n1c(=O)ccc2cc(S(=O)(=O)Nc3ccon3)ccc21 (atropisomer, axis not shown; (P)) [Example 48, (P)-1-(5-chloro-4-(3,3-difluorocyclobutyl)-2-methoxyphenyl)-N-(isoxazol-3-yl)-2-oxo-1,2-dihydroquinoline-6-sulfonamide]  10 nM
9. COc1cc([C@H]2C[C@H](C(F)(F)F)C2)c(Cl)cc1-n1c(=O)ccc2cc(S(=O)(=O)Nc3ncco3)ccc21 (atropisomer, axis not shown; (P)) [Example 49, trans (P)-1-(5-chloro-2-methoxy-4-((1R,3R)-3-(trifluoromethyl)cyclobutyl)phenyl)-N-(oxazol-2-yl)-2-oxo-1,2-dihydroquinoline-6-sulfonamide]  10 nM
10. COc1cc([C@H]2C[C@H](C(F)(F)F)C2)c(F)cc1-n1c(=O)ccc2cc(S(=O)(=O)Nc3cccnn3)ccc21 (atropisomer, axis not shown; (P)) [Example 39, trans-(P)-1-(5-fluoro-2-methoxy-4-(3-(trifluoromethyl)cyclobutyl)phenyl)-2-oxo-N-(pyridazin-3-yl)-1,2-dihydroquinoline-6-sulfonamide]  11 nM
11. COc1cc(C2CC(F)(F)C2)c(F)cc1-n1c(=O)ccc2cc(S(=O)(=O)Nc3ccon3)c(F)cc21 (atropisomer, axis not shown; (P)) [Example 41, (P)-1-(4-(3,3-difluorocyclobutyl)-5-fluoro-2-methoxyphenyl)-7-fluoro-N-(isoxazol-3-yl)-2-oxo-1,2-dihydroquinoline-6-sulfonamide]  11 nM
12. COc1cc([C@H]2C[C@H](C(F)(F)F)C2)ccc1-n1c(=O)ccc2cc(S(=O)(=O)Nc3ncccn3)ccc21 (atropisomer, axis not shown; (P)) [Example 36, trans-(P)-1-(2-methoxy-4-((1R,3R)-3-(trifluoromethyl)cyclobutyl)phenyl)-2-oxo-N-(pyrimidin-2-yl)-1,2-dihydroquinoline-6-sulfonamide]  14 nM
13. COc1cc([C@H]2C[C@H](C(F)(F)F)C2)c(F)cc1-n1c(=O)ccc2cc(S(=O)(=O)Nc3ncccn3)ccc21 (atropisomer, axis not shown; (P)) [Example 15, trans-(P)-1-(5-fluoro-2-methoxy-4-(3-(trifluoromethyl)cyclobutyl)phenyl)-2-oxo-N-(pyrimidin-2-yl)-1,2-dihydroquinoline-6-sulfonamide]  17 nM
14. COc1cc([C@H]2C[C@H](C(F)(F)F)C2)ccc1-n1c(=O)ccc2cc(S(=O)(=O)Nc3ccon3)ccc21 (atropisomer, axis not shown; (P)) [Example 35, trans-(P)—N-(isoxazol-3-yl)-1-(2-methoxy-4-(3-(trifluoromethyl)cyclobutyl)phenyl)-2-oxo-1,2-dihydroquinoline-6-sulfonamide]  20 nM
15. COc1cc([C@H]2C[C@H](C(F)(F)F)C2)ccc1-n1c(=O)ccc2cc(S(=O)(=O)Nc3cccnn3)ccc21 (atropisomer, axis not shown; (P)) [Example 38, trans-(P)-1-(2-methoxy-4-(3-(trifluoromethyl)cyclobutyl)phenyl)-2-oxo-N-(pyridazin-3-yl)-1,2-dihydroquinoline-6-sulfonamide]  21 nM
16. COc1cc(C2CCC2)c(C)cc1-n1c(=O)ccc2cc(S(=O)(=O)Nc3ncco3)ccc21 (atropisomer, axis not shown; (P)) [Example 34, (P)-1-(4-cyclobutyl-2-methoxy-5-methylphenyl)-N-(oxazol-2-yl)-2-oxo-1,2-dihydroquinoline-6-sulfonamide]  28 nM
17. COc1cc(C2CC2)c(F)cc1-n1c(=O)ccc2cc(S(=O)(=O)Nc3ccon3)ccc21 [Compound X, 1-(4-cyclopropyl-5-fluoro-2-methoxyphenyl)-N-(isoxazol-3-yl)-2-oxo-1,2-dihydroquinoline-6-sulfonamide, reference compound]  48 nM
